Experimental data as given in paper PMC10406726, “Development, scrutiny, and modulation of transient reporter gene assays of the xenobiotic metabolism pathway in zebrafish hepatocytes” (Cell Biology and Toxicology, 2021).
Read-outs that look alike come from different tables or passages of the source.

Tests used:
[1] = system: Nrf2 transcription factor activation (Nrf2/Keap1/ARE); test: Nrf2-responsive transient DLR reporter gene assay (pGL4.37 + pRL-CMV) in ZFL cells; format: cell-based, zebrafish (Danio rerio); conditions: for EC50: 4PL regression, normalized induction
Description: A transient reporter gene assay for the assessment of oxidative stress in the ZFL cell line had been described previously (Lungu-Mitea and Lundqvist [2020]), and was applied here in an identical manner. Please consult the respective chapter within the SI for more details.
ZFL cells were also transiently co-transfected with the Nrf2-responsive reporter vector pGL4.37 and the normalization vector pRL-CMV, as described in (Lungu-Mitea and Lundqvist [2020]). The transcription factor Nrf2 is a central regulator of the oxidative stress response pathways (Nrf2/Keap1/ARE) (Itoh et al. [2004]) and a keystone in the regulation of oxidative stress detoxification, metabolism, and induction of related phase-II enzymes (e.g., GST, NQO1, HO-1). Detailed descriptions, results, and discussion are given in the respective section of the SI (p. 12–14; Figs. S10 + 11, Table S4). […]
132 To undermine the “maisonette” squelching hypothesis, Comptox data regarding the induction of cellular
133 stress response pathways were backed up by empirical data in ZFL cell lines. Therefore, ZFL cells were
134 transiently co-transfected with the Nrf2-responsive reporter vector pGL4.37 and the normalization
135 vector pRL-CMV, as described in (Lungu-Mitea and Lundqvist 2020). Experimental design, data
136 handling, and statistical evaluation were identical to procedures described in the main manuscript. The
137 transcription factor Nrf2 is a central regulator of the oxidative stress response pathways
138 (Nrf2/Keap1/ARE) (Itoh et al. 2004) and a keystone in the regulation of oxidative stress detoxification,
139 metabolism, and induction of related phase-II enzymes (e.g. GST, NQO1, HO-1).
141 S10). […] Statistically
143 of the Nrf2-related luciferase signal.
144 optical inspection under the microscope ( not illustrated), leading to artefact effects in the luciferase
145 measurement. Therefore, specific points were excluded from the analysis and deemphasized in fig. S10.
146 Possibly, compound aggregation led to a flattening of the cytotoxicity curve in fig. S10. Compound
147 aggregation at higher molar concentratio ns has been discussed in (Owen et al. 2012, 2014) .
148 Concentrations up to cytotoxicity were used to derive a sigmoidal concentration -response relationship
149 (fig. S11). The computed parameters are depicted in tab. S4.

[2] = biological target: ATAD5 (ATPase family, AAA domain containing 5); set-up: method as in ToxCast database, CompTox dashboard; conditions: TOX21_ELG1_LUC_Agonist; ref ToxCast database, CompTox dashboard; cited from earlier work
[3] = biological target: ESRRA (estrogen-related receptor alpha); set-up: method as in ToxCast database, CompTox dashboard; conditions: TOX21_ERR_Agonist; ref ToxCast database, CompTox dashboard; cited from earlier work
[4] = biological target: ESR1 (estrogen receptor 1); set-up: method as in ToxCast database, CompTox dashboard; conditions: TOX21_ERa_LUC_VM7_Agonist; ref ToxCast database, CompTox dashboard; cited from earlier work
[5] = biological target: GLI3 (DNA binding); set-up: method as in ToxCast database, CompTox dashboard; conditions: TOX21_SSH_3T3_GLI3_Agonist; ref ToxCast database, CompTox dashboard; cited from earlier work
[6] = system: AHR (aryl hydrocarbon receptor); set-up: method as in ToxCast database, CompTox dashboard; conditions: ATG_Ahr_CIS_up; ref ToxCast database, CompTox dashboard; cited from earlier work
[7] = biological target: ESR1 (estrogen receptor 1); set-up: method as in ToxCast database, CompTox dashboard; conditions: ATG_ERE_CIS_up; ref ToxCast database, CompTox dashboard; cited from earlier work
[8] = system: NFE2L2 (nuclear factor, erythroid 2-like 2); set-up: method as in ToxCast database, CompTox dashboard; conditions: ATG_NRF2_ARE_CIS_up; ref ToxCast database, CompTox dashboard; cited from earlier work
[9] = system: ZFL cells; set-up: method as in Eknefelt [2018]; conditions: TCDD; same cellular context, identical exposure concentrations; ref Eknefelt [2018]; cited from earlier work

Row | SMILES | LOEC of Nrf2 induction ([1]; BNF exposure range of 3 pM to 1 mM, pGL4.37 + pRL-CMV) [nM] | Slope (CI) of 4PL regression ([1]; BNF, pGL4.37 + pRL-CMV) | concentration of maximal Nrf2 induction ([1]; BNF, pGL4.37 + pRL-CMV (Fig. S10)) [nM] | EC50 ([1]; BNF, pGL4.37 + pRL-CMV) [nM] | EC50 ([1]; Danio rerio, BNF, pGL4.37 + pRL-CMV) [nM] | maximal Nrf2 induction ([1]; at 100 nM BNF, pGL4.37 + pRL-CMV) [fold] | AC50 [2] [nM] | AC50 [3] [nM] | AC50 [4] [nM] | AC50 [5] [nM] | AC50 [6] [nM] | AC50 [7] [nM] | AC50 [8] [nM] | cytotoxicity, historical data [9]
1 | O=c1cc(-c2ccccc2)oc2ccc3ccccc3c12 [BNF, β-naphthoflavone] | 30 | […] | […] | 9.7 | 9.68 | 3.4 | 47.4 | 67.2 | 5150 | 33.9 | […] | 1060 | 157 | 
2 | Clc1cc2c(cc1Cl)Oc1cc(Cl)c(Cl)cc1O2 [TCDD, 2,3,7,8-tetrachlorodibenzo-p-dioxin] |  |  |  |  |  |  |  |  |  |  |  |  |  | no TCDD-induced cytotoxicity
